# According to ChEMBL document CHEMBL3244206, “Quinazolines as inhibitors of dihydrofolate reductase. 4. Classical analogues of folic and isofolic acids” (J Med Chem, 1977):
# System: L1210
# Test: Antitumor activity against mouse L1210 cells allografted in mouse assessed as increase in survival at 75 mg/kg administered on day 1 relative to control
# Type: functional
# Conditions: L1210, 24 h
row,Structure (SMILES),survival at 75 mg/kg [%]
1,Nc1nc(N)c2cc(CN(C=O)c3ccc(C(=O)N[C@@H](CCC(=O)O)C(=O)O)cc3)ccc2n1,0

# System: L1210
# Test: Antitumor activity against mouse L1210 cells allografted in mouse assessed as increase in survival at 200 mg/kg administered on day 1 to 3 relative to control
# Type: functional
# Conditions: L1210, 24 h
row,Structure (SMILES),survival at 200 mg/kg [%]
1,Nc1nc(O)c2cc(CN(C=O)c3ccc(C(=O)N[C@@H](CCC(=O)O)C(=O)O)cc3)ccc2n1,15

# Target: T1, Dihydrofolate reductase (Enterococcus faecium, UniProt P00380)
# T1 sequence (P00380 whole entry): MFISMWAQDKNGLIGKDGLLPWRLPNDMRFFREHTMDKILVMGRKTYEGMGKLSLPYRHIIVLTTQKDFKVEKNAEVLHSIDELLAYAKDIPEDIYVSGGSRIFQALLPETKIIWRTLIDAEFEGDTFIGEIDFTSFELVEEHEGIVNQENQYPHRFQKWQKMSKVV
# Test: Inhibition of Streptococcus faecium dihydrofolate reductase using dihydrofolate as substrate
# Conditions: read-out: I50
row,Structure (SMILES),IC50 [nM]
1,CCOC(=O)CC[C@H](NC(=O)c1ccc(CNc2ccc3nc(N)nc(N)c3c2)cc1)C(=O)OCC,32
2,CCOC(=O)CC[C@H](NC(=O)c1ccc(NCc2ccc3nc(N)nc(N)c3c2C)cc1)C(=O)OCC,2.4
3,Nc1nc(N)c2c(Cl)c(CNc3ccc(C(=O)N[C@@H](CCC(=O)O)C(=O)O)cc3)ccc2n1,0.7
4,Cc1c(CNc2ccc(C(=O)N[C@@H](CC(=O)O)C(=O)O)cc2)ccc2ncnc(N)c12 [METHASQUIN],2.5
5,CCOC(=O)CC[C@H](NC(=O)c1ccc(NCc2ccc3nc(N)nc(N)c3c2Cl)cc1)C(=O)OCC,1.7
6,Nc1nc(N)c2cc(NCc3ccc(C(=O)N[C@@H](CCC(=O)O)C(=O)O)cc3)ccc2n1,32

# The next lines start with the values.
row,IC50 [nM],Structure (SMILES)
1,115000,CCOC(=O)CC[C@H](NC(=O)c1ccc(CNc2ccc3nc(N)nc(O)c3c2C)cc1)C(=O)OCC
2,24000,CCOC(=O)CC[C@H](NC(=O)c1ccc(CNc2ccc3nc(N)nc(O)c3c2)cc1)C(=O)OCC
3,22000,Nc1nc(O)c2cc(NCc3ccc(C(=O)N[C@@H](CCC(=O)O)C(=O)O)cc3)ccc2n1
4,5900,Cc1c(NCc2ccc(C(=O)N[C@@H](CCC(=O)O)C(=O)O)cc2)ccc2nc(N)nc(O)c12
5,8.3,Cc1c(NCc2ccc(C(=O)N[C@@H](CCC(=O)O)C(=O)O)cc2)ccc2nc(N)nc(N)c12
6,3.9,CCOC(=O)CC[C@H](NC(=O)c1ccc(CNc2ccc3nc(N)nc(N)c3c2C)cc1)C(=O)OCC
7,2.2,Cc1c(CNc2ccc(C(=O)N[C@@H](CCC(=O)O)C(=O)O)cc2)ccc2nc(N)nc(N)c12

# System: L1210
# Test: Antitumor activity against mouse L1210 cells allografted in mouse assessed as increase in survival at 100 mg/kg administered on day 1 to 3 relative to control
# Type: functional
# Conditions: L1210, 24 h
row,Structure (SMILES),survival at 100 mg/kg [%]
1,Nc1nc(O)c2cc(CN(C=O)c3ccc(C(=O)N[C@@H](CCC(=O)O)C(=O)O)cc3)ccc2n1,19

# System: L1210
# Test: Antitumor activity against mouse L1210 cells allografted in mouse assessed as increase in survival at 100 mg/kg administered on day 1 to 5 relative to control
# Type: functional
# Conditions: L1210, 24 h
row,Structure (SMILES),survival at 100 mg/kg [%]
1,Nc1nc(O)c2cc(CN(C=O)c3ccc(C(=O)N[C@@H](CCC(=O)O)C(=O)O)cc3)ccc2n1,25

# System: Mus musculus
# Test: Toxicity in mouse allografted with mouse L1210 cells assessed as mortality at 75 mg/kg administered on day 1 measured on day 2
# Type: organism-based
# Parameters: dose 75 mg/kg
# Conditions: in vivo
row,Structure (SMILES),Activity
1,Nc1nc(N)c2cc(CN(C=O)c3ccc(C(=O)N[C@@H](CCC(=O)O)C(=O)O)cc3)ccc2n1,Toxic
